These results are taken from patent US20090105172A1, “Stabilized Aptamers to PSMA and Their Use as Prostate Cancer Therapeutics” (priority 2005, published 2009).

Entries after “also recorded” stand apart in the source; their conditions may differ.

The target in this data set is T1, ECD PSMA (Homo sapiens, UniProt Q04609).
T1 construct: vector-derived N-terminal linker […]; made in house; host or cells: 293 Freestyle cells, pSecTag2B vector
Kind of data set: Dot blot binding assay (nitrocellulose filter) with purified ECD PSMA. Particulars: for Max % bound (highest % of minimer bound to target protein): dot blot. An excerpt:
Protein Purification of ECD of PSMA: An I.M.A.G.E. clone (5202715) encoding full length recombinant human PSMA was purchased from Open Biosystems (Clone EHS1001-18533, Huntsville, Ala.). PCR was used to amplify the extracellular portion of the full length clone. An oligo with an N-terminal histidine tag was designed to engineer a construct which lacks the transmembrane domain residues 1-44. The his-tagged extracellular domain (ECD) was subcloned into the pSecTag2B expression vector (Invitrogen, Carlsbad, Calif.). The ECD of PSMA was purified in house from transfected 293 Freestyle cells (ATCC, Manassas, Va.). The amino acid sequence of the expressed protein comprising an N-terminal linker sequence of […] followed by eight Histidines is listed below: […] VSDr[…]a[…]r[…]rYV […] (SEQ ID NO 5)
Dot Blot Binding Analysis. Dot blot binding assays were performed throughout the selections to monitor the protein binding affinity of the pools. For initial pool screening, trace ^32P-labeled pool RNA was combined with PSMA and incubated at room temperature for 30 min in 1×SHMCK buffer pH 7.4 (20 mM Hepes pH 7.4, 120 mM NaCl, 5 mM KCl, 1 mM MgCl2, 1 mM CaCl2) plus 0.1 mg/mL tRNA in a final volume of 30 μl. The mixture was applied to a dot blot apparatus (Schleicher and Schuell Minifold-1 Dot Blot, Acrylic, Keene, N.H.), assembled (from top to bottom) with nitrocellulose, nylon, and gel blot membranes. RNA that is bound to protein is captured on the nitrocellulose filter; whereas the non-protein bound RNA is captured on the nylon filter. […] The Round 9 pool was cloned and screened in a single point dot blot assay using 100 nM PSMA (0 nM PSMA was used as a negative control). Clone transcripts were 5′ end labeled with ^32-P ATP. Likely binders were than assayed for KD determination by the blot assay conditions described directly above, but without tRNA, using an 8 point PSMA titration with a constant RNA concentration. […] Both of the clones screened were unique sequences in the Round 9 selection pool.
In order to identify the core structural elements required for ARC955 binding to PSMA, the 3′-boundaries of the clone was determined through alkaline hydrolysis. The parent RNA transcript was labeled at the 5′-end with γ-^32P ATP and T4 polynucleotide kinase. Radiolabeled ligands were subjected to partial alkaline hydrolysis and then selectively bound in solution to ECD PSMA (purified in house) at 100 nM before being passed through nitrocellulose filters (Centrex MF 1.5 mL, 0.45 μm, Schleicher & Schuell, Keene N.H.). Retained oligonucleotides were resolved on 8% denaturing polyacrylamide gels. The smallest oligonucleotide bound to PSMA defined the 3′-boundary. On the basis of the boundary experiments as well as visual inspection of predicted folds, truncated constructs were synthesized. Clones were then assayed by dot blot as previously described to determine their KD. […] The binding curve for ARC1091 in the dot blot assay is depicted in FIG. 5A, and the predicted secondary structure of ARC1091 is depicted in FIG. 5B. The KD and maximum % bound for the 3 minimized constructs with the overall highest PSMA affinity, as determined by a dot blot binding assay, are listed in Table 4. For the minimized rGmH aptamers described in Table 5 below, the guanosine triphosphates are 2′-OH and the adenosines triphosphates, cytidine triphosphates and uridine triphosphates are 2′-OMe. Unless noted otherwise, the individual sequences are represented in the 5′ to 3′ orientation. In some embodiments, the invention comprises aptamers with a nucleic acid sequence as described in Table 4 below. In some embodiments, the nucleic acid sequence of an aptamer described in Table 4 below additionally comprises a 3′ cap (e.g., an inverted dT cap), and/or 5′ amine (NH2) modification to facilitate chemical coupling, and/or conjugation to a high molecular weight, non-immunogenic compound (e.g., PEG). […]

T1 sequence (Q04609 with tags, fused parts or gaps): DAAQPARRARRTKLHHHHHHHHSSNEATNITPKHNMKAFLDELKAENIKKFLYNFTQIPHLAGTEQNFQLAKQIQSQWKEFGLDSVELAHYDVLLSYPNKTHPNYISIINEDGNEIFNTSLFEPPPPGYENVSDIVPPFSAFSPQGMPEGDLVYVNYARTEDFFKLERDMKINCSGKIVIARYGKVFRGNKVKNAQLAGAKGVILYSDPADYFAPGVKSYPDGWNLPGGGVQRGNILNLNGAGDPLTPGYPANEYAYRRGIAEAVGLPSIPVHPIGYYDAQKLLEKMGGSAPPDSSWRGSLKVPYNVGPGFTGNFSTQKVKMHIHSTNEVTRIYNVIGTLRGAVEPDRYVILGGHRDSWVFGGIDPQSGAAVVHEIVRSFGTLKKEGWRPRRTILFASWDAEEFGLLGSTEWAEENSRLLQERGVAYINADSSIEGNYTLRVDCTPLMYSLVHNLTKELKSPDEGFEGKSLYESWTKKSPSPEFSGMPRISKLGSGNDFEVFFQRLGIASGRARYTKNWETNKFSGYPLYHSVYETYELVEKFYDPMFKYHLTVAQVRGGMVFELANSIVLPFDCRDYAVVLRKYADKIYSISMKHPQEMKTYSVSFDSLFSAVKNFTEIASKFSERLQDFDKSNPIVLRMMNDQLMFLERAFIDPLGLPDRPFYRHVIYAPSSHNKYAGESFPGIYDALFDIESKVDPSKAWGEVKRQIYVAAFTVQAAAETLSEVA

With “CUACUACACAUGGGUCGGGUGAGUGGCAAAGGAAUAGUAG (2'-O-methyl at ACU, RNA at G, backbone not given here) [ARC725, non-functional rGmH minimer, irrelevant control]”, the “PSMA binding” value is given as “no intrinsic PSMA binding; also recorded: not to exhibit PSMA binding”. Moreover, under “rGmH minimers”, the “KD (nM)” value is recorded as “no binding” and the “Max % bound (highest % of minimer bound to target protein)” value (“Max % bound” for short) was “no binding”.
Regarding “CUACUGGGUGGCUGGGAGGGGAAGAGGGAGUAG (2'-O-methyl at ACU, RNA at G, backbone not given here) [ARC1089, rGmH minimer]”, under “rGmH minimers”, the dissociation constant (Kd) – broadly, the equilibrium constant for the complex coming apart – is 9.3 nM and the “Max % bound” value came to 22%.
The matching figures for “GGGUGGCUGGGAGGGGAAGAGGG (2'-O-methyl at ACU, RNA at G, backbone not given here) [ARC1088, rGmH minimer]”: 2.1 nM and 33%.
“UAAUACGACUCACUAUAGGGGAGAGGAGAGAACGUUCUACACAUGGGUCGGGUGAGUGGCAAAGGAAUAGGUCGAUCGAUCGAUCAUCGAUG [ARC956]” returned an equilibrium dissociation constant (Kd) (Round 9 PSMA rGmH clones, 8 point PSMA titration, without tRNA) of 16 nM.
In the case of “mAGmAGGmAGmAGmAmAmCGmUmUmCmUmAmCmUmAmUGGGmUGGmCmUGGGmAGGGG (AGAGGAGAGAACGUUCUACUAUGGGUGGCUGGGAGGGG; 2'-O-methyl at ACU, RNA at G, backbone not given here) [ARC1091, minimized ARC955 (G2) aptamer]”, the “PSMA binding” value is “maintains the full binding capacity”. Besides, under “rGmH minimers”, the Kd worked out at 3.1 nM and the “Max % bound” value is 52%.
